Earlier results as cited in patent publication US8362077B2, “Chemical compositions for skin care emulsions and heavy duty hand cleansers” (Pibed Limited, priority 2008, dated 2013).
Read-outs that look alike come from different tables or passages of the source.

Assays:
[1] = test system: Lactobacillus fermentum; details: flow cytometry
[2] = test system: Staphylococcus aureus; details: low concentrations (0.5 to 2 mM)
[3] = test system: Microsporum gypseum; details: M. gypseum
[4] = test system: Microsporum gypseum; details: 10% in Vaseline petroleum jelly, topical, daily for 3 weeks
[5] = test system: Escherichia coli

SMILES | Intracellular accumulation of ethidium bromide by live cells [1] | Susceptibility to ciprofloxacin, clindamycin, erythromycin, gentamicin, tetracycline and vancomycin [2] | MIC [3] | Histopathologic examination of skin tissues [4] | Skin lesion scoring [4] | Sensitization to polymyxin B [5] | Hair culture test [4] | MIC ([3]; positive control) [µg/mL]
CC(C)=CCC/C(C)=C/CC1CCCC1=O (centres unmarked) [apritone] | promoted the intracellular accumulation | enhanced the susceptibility |  |  |  |  |  | 
C=CCc1ccc(O)c(OC)c1 [eugenol] |  |  | 0.01-0.03% | lower degree of hyperkeratosis and inflammatory cell infiltration than the positive control | clinically effective at improving the lesion during the first week of application |  |  | 
CC(C)=CCCC(C)=CCCC(C)=CCO [farnesol] | promoted the intracellular accumulation |  |  |  |  | sensitized Escherichia coli to polymyxin B |  | 
CC(C)=CCC[C@](C)(O)C1CC=C(C)CC1 (some centres unmarked) [bisabolol] | promoted the intracellular accumulation | enhanced the susceptibility |  |  |  |  |  | 
C=CC(C)(O)CCC=C(C)CCC=C(C)C (centres unmarked) [nerolidol, 3,7,11-trimethyl-1,6,10-dodecatrien-3-ol] | promoted the intracellular accumulation | enhanced the susceptibility | 0.5-2% | lower degree of hyperkeratosis and inflammatory cell infiltration than the positive control | clinically effective at improving the lesion during the first week of application | sensitized Escherichia coli to polymyxin B | improved the skin lesions | 
Clc1ccc(COC(Cn2ccnc2)c2ccc(Cl)cc2Cl)cc1 (centres unmarked) [econazole] |  |  |  |  |  |  |  | 4 to 16
